Legend:
[1] = test system: Candidal vaginitis; test: Therapeutic effect of gel compositions on Candidal vaginitis (clinical cases); type: in vivo, patients; conditions: cases/cases of group
Source text: 1. Experimental Object: observing the therapeutic effect of the compositions comprising the combination of sodium benzoate with sodium propionate or sorbic acid. Unless otherwise illustrated, the solutions in the experiments are all aqueous solutions.
• Group I: 0.125% (w/v) sodium propionate; • Group II: i.e., the composition of Example 9 comprising 0.1% (w/v) sodium benzoate+0.125% (w/v) sodium propionate; • Group III: 0.0125% (w/v) sorbic acid; • Group IV: i.e., the composition of Example 7 comprising 0.1% (w/v) sodium benzoate+0.0125% (w/v) sorbic acid; • Group V: 0.1% (w/v) sodium benzoate; • Group VI: i.e., the composition of Example 5 comprising 0.1% sodium benzoate+0.0125% sodium dehydroacetate. 3. Experimental cases: cases of Candidal vaginitis, 20 cases per group, enrolling according to following criteria: recurrent symptoms such as vulvovaginal pruritus and vulvovaginal burning pain, and increased leucorrhea, optionally with white bean curd slag-like clots, pH value of vaginal secretion <4.5, vaginal bacteria were dominated by large Gram-positive rods, and Candida spores and/or hypha were found. 4. […] 5. […] 6. Observed results: observing the changes in vulvovaginal pruritus, vulvovaginal burning pain and leucorrhea nature, the pH value of vaginal secretion, observing the Nugent scores of the vaginal flora, whether Candida grew or not. 7. […] 8.

[2] = test system: Candida strains (clinical isolates from patients suffering from Candidal vaginitis); test: Inhibition of Candida growth in broth pH 4.5 (turbidity after 72 hours); type: cell-based; conditions: for Candida growth, Strain 1: Strain 1, 37.5° C.; for Candida growth, Strain 2: Strain 2, 37.5° C.; for Candida growth, Strain 3: Strain 3, 37.5° C.; for Candida growth, Strain 4: Strain 4, 37.5° C.; for Candida growth, Strain 5: Strain 5, 37.5° C.; for Candida growth, Strain 6: Strain 6, 37.5° C.; for Candida growth, Strain 7: Strain 7, 37.5° C.; for Candida growth, Strain 8: Strain 8, 37.5° C.; for Candida growth, Strain 9: Strain 9, 37.5° C.; for Candida growth, Strain 10: Strain 10, 37.5° C.; for Candida growth, Strain 11: Strain 11, 37.5° C.; for number of the 11 Candida strains that grew: of 11 strains
Source text: 1. […] Unless otherwise illustrated, the solutions in the experiments are all aqueous solutions. 2. Experimental Method: (1) Experimental Materials:
a) Experimental strains: 11 Candida strains, all of which were screened from the clinical isolates from patients suffering from Candidal vaginitis, and were capable of growing in broth comprising 0.025% (w/v) sodium benzoate.
b) Broth: 1% yeast extract powder, 9% sucrose, 0.025% Manganese sulfate (MnSO4.4H2O), 0.058% Magnesium sulphate (MgSO4.7H2O), and 0.9% lactic acid, wherein the pH value was adjusted to 4.5 and the broth was sterilized for use;
(2) Experimental Grouping:
The requirements for aseptic technique were strictly followed to prepare the following groups of sterile test tubes: • a) sodium benzoate group: a test tube containing 5 ml broth, to which 0.025% (w/v) sodium benzoate was added; • b) sodium benzoate+sodium dehydroacetate group: 6 test tubes each containing 5 ml broth, wherein 0.0025% (w/v), 0.005% (w/v), and 0.01% (w/v) sodium dehydroacetate were added to three tubes, respectively; 0.025% (w/v) sodium benzoate was added to each of the rest 3 tubes, and then 0.0025% (w/v), 0.005% (w/v), 0.01% (w/v) sodium dehydroacetate were added to them, respectively; • c) sodium benzoate+sodium propionate group: 6 test tubes each containing 5 ml broth, wherein 0.0625% (w/v), 0.125% (w/v), and 0.25% (w/v) sodium propionate were added to three tubes, respectively; 0.025% (w/v) sodium benzoate was added to each of the rest 3 tubes, and then 0.0625% (w/v), 0.125% (w/v), and 0.25% (w/v) sodium propionate were added to them, respectively; • d) sodium benzoate+potassium sorbate group: 6 test tubes each containing 5 ml broth, wherein 0.00625% (w/v), 0.0125% (w/v), and 0.025% (w/v) potassium sorbate were added to 3 tubes, respectively; 0.025% (w/v) sodium benzoate was added to each of the rest 3 tubes, and then 0.00625% (w/v), 0.0125% (w/v), and 0.025% (w/v) potassium sorbate were added to them, respectively; • e) sodium benzoate+Ethylparaben: 6 test tubes each containing 5 ml broth, wherein 0.0125% (w/v), 0.025% (w/v), and 0.05% (w/v) Ethylparaben were added to 3 tubes, respectively; 0.025% (w/v) sodium benzoate was added to each of the rest 3 tubes, and then 0.0125% (w/v), 0.025% (w/v), and 0.05% (w/v) Ethylparaben were added to them, respectively; • f) Positive control: a broth-containing test tube with Candida but without sodium benzoate, sodium dehydroacetate, sodium propionate, sorbic acid, or Ethylparaben. • g) Negative control: a broth-containing test tube without Candida, sodium benzoate, sodium dehydroacetate, sodium propionate, sorbic acid, or Ethylparaben; (3) Experimental Methods:
The Candidal suspensions were prepared under stringent aseptic manipulation techniques. The colonies of various Candidal strains were diluted with saline, respectively. The turbidity was adjusted with a turbiditor to 0.5M (about 10^8CFU/ml), and then 1 ml 0.5M bacterial solution was added to 9 ml broth and was 10 times diluted, so that each Candidal suspension comprised Candidal organisms at 10^7CFU/ml.
Under stringent aseptic manipulation techniques, 100 μl bacterial solution thus prepared was added to each of the aforesaid a˜f test tubes and the positive control tube, and no bacterial solution was added to the negative control tube g.
These tubes were incubated in a biochemical incubator at 37.5° C. for 72 hours. The turbidity of the test tubes were observed and recorded.

O=C([O-])c1ccccc1.[Na+] [0.1% sodium benzoate, sodium benzoate]
Candida (detection rate) ([1]; Day 1): 15/20 | pH 3.8~4.1 (vaginal secretion) ([1]; Day 1): 12/20 | pH 4.2~4.5 (vaginal secretion) ([1]; Day 1): 6/20 | pH <3.8 (vaginal secretion) ([1]; Day 1): 2/20 | symptom alleviated/eliminated ([1]; Day 1): 7/20 | Candida (detection rate) ([1]; Day 2): 13/20 | pH 3.8~4.1 (vaginal secretion) ([1]; Day 2): 10/20 | pH 4.2~4.5 (vaginal secretion) ([1]; Day 2): 9/20 | pH <3.8 (vaginal secretion) ([1]; Day 2): 1/20 | symptom alleviated/eliminated ([1]; Day 2): 9/20 | Candida (detection rate) ([1]; Day 3): 9/20 | pH 3.8~4.1 (vaginal secretion) ([1]; Day 3): 9/20 | pH 4.2~4.5 (vaginal secretion) ([1]; Day 3): 9/20 | pH <3.8 (vaginal secretion) ([1]; Day 3): 2/20 | symptom alleviated/eliminated ([1]; Day 3): 14/20 | Candida (detection rate) ([1]; Day 4): 5/20 | pH 3.8~4.1 (vaginal secretion) ([1]; Day 4): 10/20 | pH 4.2~4.5 (vaginal secretion) ([1]; Day 4): 9/20 | pH <3.8 (vaginal secretion) ([1]; Day 4): 1/20 | symptom alleviated/eliminated ([1]; Day 4): 15/20 | Candida (detection rate) ([1]; Day 5): 6/20 | pH 3.8~4.1 (vaginal secretion) ([1]; Day 5): 9/20 | pH 4.2~4.5 (vaginal secretion) ([1]; Day 5): 10/20 | pH <3.8 (vaginal secretion) ([1]; Day 5): 1/20 | symptom alleviated/eliminated ([1]; Day 5): 15/20 | Candida (detection rate) ([1]; before administration): 20/20 | pH 3.8~4.1 (vaginal secretion) ([1]; before administration): 10/20 | pH 4.2~4.5 (vaginal secretion) ([1]; before administration): 4/20 | pH <3.8 (vaginal secretion) ([1]; before administration): 6/20 | symptom alleviated/eliminated ([1]; before administration): 0/20

CCOC(=O)c1ccc(O)cc1 [0.0125% Ethylparaben, Ethylparaben]
Candida growth, Strain 1 [2]: + | Candida growth, Strain 2 [2]: + | Candida growth, Strain 3 [2]: + | Candida growth, Strain 4 [2]: + | Candida growth, Strain 5 [2]: + | Candida growth, Strain 6 [2]: + | Candida growth, Strain 7 [2]: + | Candida growth, Strain 8 [2]: + | Candida growth, Strain 9 [2]: + | Candida growth, Strain 10 [2]: + | Candida growth, Strain 11 [2]: + | number of the 11 Candida strains that grew ([2]; listed as 0.0125% (w/v) Ethylparaben): 11

C/C=C/C=C/C(=O)[O-].[K+] [0.0125% potassium sorbate, potassium sorbate]
Candida growth, Strain 1 [2]: + | Candida growth, Strain 2 [2]: − | Candida growth, Strain 3 [2]: + | Candida growth, Strain 4 [2]: + | Candida growth, Strain 5 [2]: + | Candida growth, Strain 6 [2]: + | Candida growth, Strain 7 [2]: + | Candida growth, Strain 8 [2]: + | Candida growth, Strain 9 [2]: − | Candida growth, Strain 10 [2]: + | Candida growth, Strain 11 [2]: +

CCC(=O)[O-].[Na+] [0.125% sodium propionate, sodium propionate]
Candida growth, Strain 1 [2]: + | Candida growth, Strain 2 [2]: + | Candida growth, Strain 3 [2]: + | Candida growth, Strain 4 [2]: + | Candida growth, Strain 5 [2]: − | Candida growth, Strain 6 [2]: + | Candida growth, Strain 7 [2]: + | Candida growth, Strain 8 [2]: + | Candida growth, Strain 9 [2]: − | Candida growth, Strain 10 [2]: + | Candida growth, Strain 11 [2]: − | Candida (detection rate) ([1]; Day 1): 16/20 | pH 3.8~4.1 (vaginal secretion) ([1]; Day 1): 12/20 | pH 4.2~4.5 (vaginal secretion) ([1]; Day 1): 5/20 | pH <3.8 (vaginal secretion) ([1]; Day 1): 3/20 | symptom alleviated/eliminated ([1]; Day 1): 7/20 | Candida (detection rate) ([1]; Day 2): 13/20 | pH 3.8~4.1 (vaginal secretion) ([1]; Day 2): 11/20 | pH 4.2~4.5 (vaginal secretion) ([1]; Day 2): 6/20 | pH <3.8 (vaginal secretion) ([1]; Day 2): 3/20 | symptom alleviated/eliminated ([1]; Day 2): 9/20 | Candida (detection rate) ([1]; Day 3): 10/20 | pH 3.8~4.1 (vaginal secretion) ([1]; Day 3): 9/20 | pH 4.2~4.5 (vaginal secretion) ([1]; Day 3): 9/20 | pH <3.8 (vaginal secretion) ([1]; Day 3): 2/20 | symptom alleviated/eliminated ([1]; Day 3): 14/20 | Candida (detection rate) ([1]; Day 4): 12/20 | pH 3.8~4.1 (vaginal secretion) ([1]; Day 4): 10/20 | pH 4.2~4.5 (vaginal secretion) ([1]; Day 4): 9/20 | pH <3.8 (vaginal secretion) ([1]; Day 4): 1/20 | symptom alleviated/eliminated ([1]; Day 4): 13/20 | Candida (detection rate) ([1]; Day 5): 11/20 | pH 3.8~4.1 (vaginal secretion) ([1]; Day 5): 10/20 | pH 4.2~4.5 (vaginal secretion) ([1]; Day 5): 8/20 | pH <3.8 (vaginal secretion) ([1]; Day 5): 2/20 | symptom alleviated/eliminated ([1]; Day 5): 13/20 | Candida (detection rate) ([1]; before administration): 20/20 | pH 3.8~4.1 (vaginal secretion) ([1]; before administration): 9/20 | pH 4.2~4.5 (vaginal secretion) ([1]; before administration): 5/20 | pH <3.8 (vaginal secretion) ([1]; before administration): 6/20 | symptom alleviated/eliminated ([1]; before administration): 0/20

C/C=C/C=C/C(=O)O [0.0125% sorbic acid, sorbic acid]
Candida (detection rate) ([1]; Day 1): 15/20 | pH 3.8~4.1 (vaginal secretion) ([1]; Day 1): 13/20 | pH 4.2~4.5 (vaginal secretion) ([1]; Day 1): 6/20 | pH <3.8 (vaginal secretion) ([1]; Day 1): 1/20 | symptom alleviated/eliminated ([1]; Day 1): 6/20 | Candida (detection rate) ([1]; Day 2): 15/20 | pH 3.8~4.1 (vaginal secretion) ([1]; Day 2): 11/20 | pH 4.2~4.5 (vaginal secretion) ([1]; Day 2): 7/20 | pH <3.8 (vaginal secretion) ([1]; Day 2): 2/20 | symptom alleviated/eliminated ([1]; Day 2): 12/20 | Candida (detection rate) ([1]; Day 3): 13/20 | pH 3.8~4.1 (vaginal secretion) ([1]; Day 3): 10/20 | pH 4.2~4.5 (vaginal secretion) ([1]; Day 3): 8/20 | pH <3.8 (vaginal secretion) ([1]; Day 3): 2/20 | symptom alleviated/eliminated ([1]; Day 3): 11/20 | Candida (detection rate) ([1]; Day 4): 14/20 | pH 3.8~4.1 (vaginal secretion) ([1]; Day 4): 11/20 | pH 4.2~4.5 (vaginal secretion) ([1]; Day 4): 8/20 | pH <3.8 (vaginal secretion) ([1]; Day 4): 1/20 | symptom alleviated/eliminated ([1]; Day 4): 13/20 | Candida (detection rate) ([1]; Day 5): 13/20 | pH 3.8~4.1 (vaginal secretion) ([1]; Day 5): 11/20 | pH 4.2~4.5 (vaginal secretion) ([1]; Day 5): 7/20 | pH <3.8 (vaginal secretion) ([1]; Day 5): 2/20 | symptom alleviated/eliminated ([1]; Day 5): 12/20 | Candida (detection rate) ([1]; before administration): 20/20 | pH 3.8~4.1 (vaginal secretion) ([1]; before administration): 9/20 | pH 4.2~4.5 (vaginal secretion) ([1]; before administration): 6/20 | pH <3.8 (vaginal secretion) ([1]; before administration): 5/20 | symptom alleviated/eliminated ([1]; before administration): 0/20

C/C=C/C=C/C(=O)[O-].[K+] [0.00625% potassium sorbate, potassium sorbate]
Candida growth, Strain 1 [2]: + | Candida growth, Strain 2 [2]: + | Candida growth, Strain 3 [2]: + | Candida growth, Strain 4 [2]: + | Candida growth, Strain 5 [2]: + | Candida growth, Strain 6 [2]: + | Candida growth, Strain 7 [2]: + | Candida growth, Strain 8 [2]: + | Candida growth, Strain 9 [2]: − | Candida growth, Strain 10 [2]: + | Candida growth, Strain 11 [2]: + | number of the 11 Candida strains that grew ([2]; listed as 0.00625% (w/v) potassium sorbate): 10

CCC(=O)[O-].[Na+] [0.0625% sodium propionate, sodium propionate]
Candida growth, Strain 1 [2]: + | Candida growth, Strain 2 [2]: + | Candida growth, Strain 3 [2]: + | Candida growth, Strain 4 [2]: + | Candida growth, Strain 5 [2]: + | Candida growth, Strain 6 [2]: + | Candida growth, Strain 7 [2]: + | Candida growth, Strain 8 [2]: + | Candida growth, Strain 9 [2]: + | Candida growth, Strain 10 [2]: + | Candida growth, Strain 11 [2]: + | number of the 11 Candida strains that grew ([2]; listed as 0.0625% (w/v) sodium propionate): 11
